Laboratory results as given in paper PMC11882074, “Identification of antimicrobial peptides from the Ambystoma mexicanum displaying antibacterial and antitumor activity” (PLOS One, 2025).
Residues, ends and D or L forms follow the SMILES beside them.

Experiments:
[1] = system: MRSA, ATCC# 43300; format: cell-based, Staphylococcus aureus
Experimental: (§1) MIC assays (MRSA, ATCC# 43300/ MSSA, ATCC# 6538) were performed according to CLSI guidelines. […] Thereafter, samples were treated with peptide concentrations ranging from 10, 5, 2.5, 2, 1.75, 1.5 1.25, 1, 0,85, 0.625 and 0.313 µg/mL. Human antimicrobial peptide LL-37 was utilized as a positive control at a concentration of 256 μg/mL, as it is one of the best-known examples of AMP-based drug development. The assay was performed in triplicates. Efficacy was assessed according to the viable bacterial load determined by dilution plating and counting of Colony Forming Units (CFU). The lowest concentration that inhibited bacterial growth after 24 h of incubation is the MIC. Growth curve were performed using a plate reader (Synergy 2, Biotek).

[2] = system: methicillin-resistant Staphylococcus aureus; conditions: no reference given, cited from earlier work
Experimental: We evaluated the antimicrobial activity of the synthesized peptides by assessing their MIC against Meticillin-Sensitive Staphylococcus aureus and Methicillin-resistant Staphylococcus aureus (MSSA and MRSA). […] The MIC of vancomycin of 2 µg/mL was used as ... || The skin mucus-derived AMPs were initially characterized, and 22 candidate peptides were identified and ranked based on their likelihood of having antibacterial activities (Table 1, Supl. 2).

[3] = system: MSSA, ATCC# 6538; assay: MIC assay according to CLSI guidelines against MSSA; format: cell-based, Staphylococcus aureus; conditions: 24 h, 37°C; peptides listed in order of lowest to highest MIC; Fig 2A
Experimental: as §1

[4] = system: T-47D mammary carcinoma cells; assay: Apoptosis assay (Apo-ONE Homogeneous Caspase-3/7) in T-47D cells; format: cell-based, human; conditions: for apoptotic activity compared to the control in T-47D cells: 1 µg/ml peptide; for apoptotic activity compared to the control in T-47D cells / caspase-3/7 activity (apoptotic induction) in T-47D cells: 24 h stimulation, fluorescence (RFU); for caspase-3/7 activity (apoptotic induction) in T-47D cells: 10 µg/ml peptide; for apoptosis in cancerous breast tissue cells (T-47D): all concentrations tested (1µg, 5µg, and 10µg), 24 h, compared with MCF10A, t-test
[5] = system: T-47D mammary carcinoma cells; assay: Gene expression analysis, Human Breast Cancer RT2 Profiler PCR array; format: cell-based; conditions: 10 µg/mL peptide, 24 h, ΔΔCt vs unstimulated control, fold change above 2
Experimental: Three 75 cm^2 cell culture flasks containing the T-47D and three 75 cm^2 cell culture flasks containing the MCF10A cells were individually stimulated with peptides 1, 12, or 13 at a concentration of 10 µg/mL. An unstimulated cell culture flask was left as a control. Cells were incubated for 24 hours according to standard protocol at 37°C and 5% CO2, in a humidified atmosphere.
After 24 hours, the cells were detached, and RNA was isolated according to the Macherey-Nagel kit. RNA quality was assessed using a NanoDrop 1000 spectrophotometer and gel electrophoresis. To create cDNA the iScript cDNA Synthesis Kit (BioRad) was used and followed according to manufacturer’s instructions. For gene expression analysis, the Human Breast Cancer RT2 Profiler PCR array was used (Qiagen) according to manufacturer’s instructions. On this plate, forward and reverse primers were already included in each well for the respective genes. The qPCR cycling conditions were as follows: 8.5 min at 95°C, […] at 55°C, […] at 72°C and 4°C as holding temperature. Housekeeping gene stability was validated, and results were geometrically averaged. Beta (β)-actin was used for endogenous controls. Expression of carcinogenic markers was quantified relative by the ΔΔCt method and results were normalized to housekeeping genes (Livak and Schmittgen, 2001). The Ct values of the untreated samples were set to zero. The Ct values of the MCF10A samples were subtracted from the Ct values of the T-47D samples. Relative gene expression was calculated from the zero line using Microsoft Excel Version 2016 software (Microsoft Cooperation, Redmond, WA, USA). The resulting higher or lower expressions of the analyzed genes were presented. Gene expression was measured using the BioRad i-Cycler.

Molecule | MIC against methicillin-resistant Staphylococcus aureus (MRSA) ([1]; ATCC# 43300, 24 h) | MIC of vancomycin used as threshold for identifying inhibitory effects ([2]; threshold for MRSA and MSSA in Fig 2A) | MIC values reported against similar MRSA strains ([2]; typical reported range) | inhibitory effect against MSSA (MIC relative to vancomycin threshold of 2 µg/mL) [3] | inhibitory effect against MRSA (MIC relative to vancomycin threshold of 2 µg/mL) ([1]; 24 h, 37°C, peptides listed in order of lowest to highest MIC, Fig 2A) | apoptotic activity compared to the control in T-47D cells [4] | caspase-3/7 activity (apoptotic induction) in T-47D cells [4] | apoptosis in cancerous breast tissue cells (T-47D) [4] | genes with significant decrease in expression [5] | genes with significant increase in expression [5]
CC[C@H](C)[C@H](NC(=O)CNC(=O)CNC(=O)[C@H](CO)NC(=O)[C@H](C)NC(=O)CNC(=O)[C@H](CC(C)C)NC(=O)[C@@H](NC(=O)[C@H](C)NC(=O)[C@@H](N)C(C)C)C(C)C)C(=O)NCC(=O)N[C@@H](CCC(N)=O)C(=O)N1CCC[C@H]1C(=O)N[C@@H](CC(C)C)C(=O)N[C@@H](CO)C(=O)N[C@@H](CC(C)C)C(=O)N[C@@H](CC(C)C)C(=O)N[C@@H](CC(C)C)C(=O)N[C@@H](CCCCN)C(=O)O [Peptide 1] (H-VAVLGASGGIGQPLSLLLK-OH) | 2 µg/mL |  |  |  |  |  |  |  |  | 
CN[C@H](CC(C)C)C(=O)N[C@H]1C(=O)N[C@@H](CC(N)=O)C(=O)N[C@H]2C(=O)N[C@H]3C(=O)N[C@H](C(=O)N[C@H](C(=O)O)c4cc(O)cc(O)c4-c4cc3ccc4O)[C@H](O)c3ccc(c(Cl)c3)Oc3cc2cc(c3O[C@@H]2O[C@H](CO)[C@@H](O)[C@H](O)[C@H]2O[C@H]2C[C@](C)(N)[C@H](O)[C@H](C)O2)Oc2ccc(cc2Cl)[C@H]1O [vancomycin] |  | 2 µg/mL | 0.5 to 2 µg/mL |  |  |  |  |  |  | 
FGANALLGVSLAVcKAGAAEK [Peptide 13, synthetic analog of axolotl skin mucus AMP, rank 13] |  |  |  | Inhibitory effects | inhibitory effect | less distinct | highest levels of caspase-3/7 activity | significantly increased apoptosis | IL6 and MMP2 | BRCA1, BRCA2, NR3C1, SERPINE1, and XBP1
ILLLcVGEAGDTVQFAEYIQK [Peptide 12, synthetic analog of axolotl skin mucus AMP, rank 12] |  |  |  |  |  | increased apoptotic activity compared to the control | highest levels of caspase-3/7 activity | significantly increased apoptosis | CCND2, EGF, GLI1, KRT5, MMP2, and SERPINE1 | BRCA1, JUN, NR3C1, RB1, SFN, and XBP1
